The values below come from US9670201B2, “Methyl- and trifluoromethyl-substituted pyrrolopyridine modulators of RORC2 and methods of use thereof” (Pfizer Inc., priority 2014, dated 2017).

The target of this assay is RORC2 ligand binding domain (6-His-RORC2 LBD) (Homo sapiens (Human), UniProt P51449). As to the kind of experiment: Co-activator recruitment by TR-FRET. The assay is classed as biochemical. The settings on record: 6-His-RORC2 LBD / SRC1-2 coactivator peptide, Table 1.

Each structure is given as a SMILES string.

RORC2 ligand binding domain (6-His-RORC2 LBD), sequence (P51449 269-508): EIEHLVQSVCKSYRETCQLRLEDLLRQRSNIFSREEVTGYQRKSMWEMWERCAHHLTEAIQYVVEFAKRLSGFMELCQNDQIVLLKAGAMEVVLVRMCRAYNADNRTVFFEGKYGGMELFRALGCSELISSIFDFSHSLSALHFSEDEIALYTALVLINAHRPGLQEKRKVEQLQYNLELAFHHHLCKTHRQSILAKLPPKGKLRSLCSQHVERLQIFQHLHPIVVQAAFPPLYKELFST

For orientation: IC50 means the concentration at which inhibition is half-maximal. For `CC(C(=O)N1CCC(c2cn(C)c3ncc(NC(=O)c4cccc(C#N)c4)c(C(F)(F)F)c23)CC1)C1CC1` (racemic) [Example 25, Rac-3-cyano-N-(3-(1-(2-cyclopropylpropanoyl)piperidin-4-yl)-1-methyl-4-(trifluoromethyl)-1H-pyrrolo[2,3-b]pyridin-5-yl)benzamide], the IC50 was 5.8 nM.
Consider `Cc1c(NC(=O)c2cccc(C#N)c2)cnc2c1c([C@H]1C[C@H](C)N(C(=O)C3CCCC3)C[C@H]1C)cn2C` (relative stereo) [Example 97, rel-3-cyano-N-(3-((2S,4S,5S)-1-(cyclopentanecarbonyl)-2,5-dimethylpiperidin-4-yl)-1,4-dimethyl-1H-pyrrolo[2,3-b]pyridin-5-yl)benzamide], for which the half-inhibitory concentration (IC50) came to 18.6 nM.
`Cn1cc(C2CCN(C(=O)[C@H]3CCCS3)CC2)c2c(C(F)(F)F)c(NC(=O)c3cccc(C#N)c3)cnc21` (single isomer, unassigned) [Example 28] came in with an IC50 of 7.1 nM.
The value for `Cn1cc(C2CCN(C(=O)[C@@H]3CCCS3)CC2)c2c(C(F)(F)F)c(NC(=O)c3cccc(C#N)c3)cnc21` (single isomer, unassigned) [Example 29] was 0.9 nM; that for `Cc1c(NC(=O)c2cccc(C#N)c2)cnc2c1c(C1CCN(C(=O)[C@H]3CCC[C@@H]3C)CC1)cn2C` (single isomer, unassigned) [Example 46] was 16.4 nM.
As for `Cc1c(NC(=O)c2cccc(C#N)c2)cnc2c1c(C1CCN(C(=O)[C@@H]3CCC[C@H]3C)CC1)cn2C` (single isomer, unassigned) [Example 47], the IC50 turned out to be 10.1 nM.
The value for `Cc1c(NC(=O)c2cccc(C#N)c2)cnc2c1c(C1CCN(C(=O)[C@@H]3CCC[C@H]3C(C)C)CC1)cn2C` (single isomer, unassigned) [Example 49] was 6.2 nM; that for `Cn1cc(C2CCN(C(=O)C3CCCC3)CC2)c2c(C(F)(F)F)c(NC(=O)c3ccc(F)c(C#N)c3)cnc21` [Example 3, 3-cyano-N-(3-(1-(cyclopentanecarbonyl)piperidin-4-yl)-1-methyl-4-(trifluoromethyl)-1H-pyrrolo[2,3-b]pyridin-5-yl)-4-fluorobenzamide] was 3.2 nM; that for `CC(C)C(=O)N1CCC(c2cn(C)c3ncc(NC(=O)c4ccc(F)c(C#N)c4)c(C(F)(F)F)c23)CC1` [Example 9, 3-cyano-4-fluoro-N-(3-(1-isobutyrylpiperidin-4-yl)-1-methyl-4-(trifluoromethyl)-1H-pyrrolo[2,3-b]pyridin-5-yl)benzamide] was 5.4 nM.
With `COc1ccc(C(=O)Nc2cnc3c(c(C4CCN(C(=O)C(C)C)CC4)cn3C)c2C(F)(F)F)cc1Cl` [Example 10, 3-chloro-N-(3-(1-isobutyrylpiperidin-4-yl)-1-methyl-4-(trifluoromethyl)-1H-pyrrolo[2,3-b]pyridin-5-yl)-4-methoxybenzamide] the figure was 3.5 nM; with `CC(C)C(=O)N1CCC(c2cn(C)c3ncc(NC(=O)c4ccc(Cl)c(C#N)c4)c(C(F)(F)F)c23)CC1` [Example 11, 4-chloro-3-cyano-N-(3-(1-isobutyrylpiperidin-4-yl)-1-methyl-4-(trifluoromethyl)-1H-pyrrolo[2,3-b]pyridin-5-yl)benzamide], 1.5 nM.
On to `CC(C)C(=O)N1CCC(c2cn(C)c3ncc(NC(=O)c4ccc(F)c(Cl)c4)c(C(F)(F)F)c23)CC1` [Example 12, 3-chloro-4-fluoro-N-(3-(1-isobutyrylpiperidin-4-yl)-1-methyl-4-(trifluoromethyl)-1H-pyrrolo[2,3-b]pyridin-5-yl)benzamide], for which the IC50 turned out to be 11.8 nM.
With `COc1cc(Cl)cc(C(=O)Nc2cnc3c(c(C4CCN(C(=O)C(C)C)CC4)cn3C)c2C(F)(F)F)c1` [Example 13, 3-chloro-N-(3-(1-isobutyrylpiperidin-4-yl)-1-methyl-4-(trifluoromethyl)-1H-pyrrolo[2,3-b]pyridin-5-yl)-5-methoxybenzamide] the figure was 5 nM.
For `Cn1cc(C2CCN(C(=O)[C@H]3C[C@H]4CCCC[C@H]4C3)CC2)c2c(C(F)(F)F)c(NC(=O)c3cccc(C#N)c3)cnc21` [Example 16, 3-cyano-N-(1-methyl-3-(1-((2r,3aR,7aS)-octahydro-1H-indene-2-carbonyl)piperidin-4-yl)-4-(trifluoromethyl)-1H-pyrrolo[2,3-b]pyridin-5-yl)benzamide], the IC50 came out at 10.2 nM.
Regarding `Cn1cc(C2CCN(C(=O)CC3CCC3)CC2)c2c(C(F)(F)F)c(NC(=O)c3cccc(C#N)c3)cnc21` [Example 18, 3-cyano-N-(3-(1-(2-cyclobutylacetyl)piperidin-4-yl)-1-methyl-4-(trifluoromethyl)-1H-pyrrolo[2,3-b]pyridin-5-yl)benzamide], the half-inhibitory concentration (IC50) was found to be 3.8 nM.
The value for `Cn1cc(C2CCN(C(=O)CC3CCCCC3)CC2)c2c(C(F)(F)F)c(NC(=O)c3cccc(C#N)c3)cnc21` [Example 20, 3-cyano-N-(3-(1-(2-cyclohexylacetyl)piperidin-4-yl)-1-methyl-4-(trifluoromethyl)-1H-pyrrolo[2,3-b]pyridin-5-yl)benzamide] was 5.2 nM; that for `Cn1cc(C2CCN(C(=O)CC3CC3)CC2)c2c(C(F)(F)F)c(NC(=O)c3cccc(C#N)c3)cnc21` [Example 24, 3-cyano-N-(3-(1-(2-cyclopropylacetyl)piperidin-4-yl)-1-methyl-4-(trifluoromethyl)-1H-pyrrolo[2,3-b]pyridin-5-yl)benzamide] was 5.8 nM.
The value for `Cc1c(NC(=O)c2cccc(C#N)c2)cnc2c1c(C1CCN(C(=O)c3cccc4c3CCC4)CC1)cn2C` [Example 34, 3-cyano-N-(3-(1-(2,3-dihydro-1H-indene-4-carbonyl)piperidin-4-yl)-1,4-dimethyl-1H-pyrrolo[2,3-b]pyridin-5-yl)benzamide] was 5.7 nM; that for `Cc1c(NC(=O)c2cccc(C#N)c2)cnc2c1c(C1CCN(C(=O)[C@H](C)C(C)C)CC1)cn2C` [Example 37, (R)-3-cyano-N-(3-(1-(2,3-dimethylbutanoyl)piperidin-4-yl)-1,4-dimethyl-1H-pyrrolo[2,3-b]pyridin-5-yl)benzamide] was 11.6 nM.
With `Cc1c(NC(=O)c2cc(Cl)ccc2F)cnc2c1c(C1CCN(C(=O)[C@H](C)C(C)(C)C)CC1)cn2C` [Example 41, (R)-5-chloro-N-(1,4-dimethyl-3-(1-(2,3,3-trimethylbutanoyl)piperidin-4-yl)-1H-pyrrolo[2,3-b]pyridin-5-yl)-2-fluorobenzamide] the figure was 4.5 nM; with `COc1cc(Cl)cc(C(=O)Nc2cnc3c(c(C4CCN(C(=O)[C@H](C)C(C)(C)C)CC4)cn3C)c2C)c1` [Example 42, (R)-3-chloro-N-(1,4-dimethyl-3-(1-(2,3,3-trimethylbutanoyl)piperidin-4-yl)-1H-pyrrolo[2,3-b]pyridin-5-yl)-5-methoxybenzamide], 7.6 nM.
As for `Cc1c(NC(=O)c2cccc(C#N)c2)cnc2c1c(C1CCN(C(=O)[C@H](C)C34CC(C3)C4)CC1)cn2C` [Example 50, (R)—N-(3-(1-(2-(bicyclo[1.1.1]pentan-1-yl)propanoyl)piperidin-4-yl)-1,4-dimethyl-1H-pyrrolo[2,3-b]pyridin-5-yl)-3-cyanobenzamide], the IC50 worked out at 7.5 nM.
The value for `Cc1c(NC(=O)c2cccc(C#N)c2)cnc2c1c(C1CCN(C(=O)[C@H](C)C3CCCC3)CC1)cn2C` [Example 51, (R)-3-cyano-N-(3-(1-(2-cyclopentylpropanoyl)piperidin-4-yl)-1,4-dimethyl-1H-pyrrolo[2,3-b]pyridin-5-yl)benzamide] was 6.9 nM; that for `C[C@@H](C(=O)N1CCC(c2cn(C)c3ncc(NC(=O)c4cc(O)cc(C#N)c4)c(C(F)(F)F)c23)CC1)C(C)(C)C` [Example 54, (R)-3-cyano-5-hydroxy-N-(1-methyl-4-(trifluoromethyl)-3-(1-(2,3,3-trimethylbutanoyl)piperidin-4-yl)-1H-pyrrolo[2,3-b]pyridin-5-yl)benzamide] was 4.7 nM.
As to `Cn1cc(C2CCN(C(=O)C3CCCC3)CC2)c2c(C(F)(F)F)c(NC(=O)c3cc(O)cc(C#N)c3)cnc21` [Example 55, 3-cyano-N-(3-(1-(cyclopentanecarbonyl)piperidin-4-yl)-1-methyl-4-(trifluoromethyl)-1H-pyrrolo[2,3-b]pyridin-5-yl)-5-hydroxybenzamide], the IC50 amounted to 10.6 nM.
`Cc1c(NC(=O)c2cc(O)cc(C#N)c2)cnc2c1c(C1CCN(C(=O)[C@H](C)C(C)(C)C)CC1)cn2C` [Example 56, (R)-3-cyano-N-(1,4-dimethyl-3-(1-(2,3,3-trimethylbutanoyl)piperidin-4-yl)-1H-pyrrolo[2,3-b]pyridin-5-yl)-5-hydroxybenzamide] registered an IC50 of 5.6 nM.
The value for `Cc1ccc(C(=O)Nc2cnc3c(c([C@@H]4CCN(C(=O)C5CCCC5)C(C)(C)C4)cn3C)c2C)cc1C#N` [Example 59, (R)-3-cyano-N-(3-(1-(cyclopentanecarbonyl)-2,2-dimethylpiperidin-4-yl)-1,4-dimethyl-1H-pyrrolo[2,3-b]pyridin-5-yl)-4-methylbenzamide] was 11.8 nM; that for `Cc1c(NC(=O)c2ccc(F)c(C#N)c2)cnc2c1c([C@@H]1CCN(C(=O)C3CCCC3)C(C)(C)C1)cn2C` [Example 61, (R)-3-cyano-N-(3-(1-(cyclopentanecarbonyl)-2,2-dimethylpiperidin-4-yl)-1,4-dimethyl-1H-pyrrolo[2,3-b]pyridin-5-yl)-4-fluorobenzamide] was 15.2 nM.
With `COc1cc(Cl)cc(C(=O)Nc2cnc3c(c([C@@H]4CCN(C(=O)C(C)C)C(C)(C)C4)cn3C)c2C)c1` [Example 62, (R)-3-chloro-N-(3-(1-isobutyryl-2,2-dimethylpiperidin-4-yl)-1,4-dimethyl-1H-pyrrolo[2,3-b]pyridin-5-yl)-5-methoxybenzamide] the figure was 9.7 nM.
For `COc1cc(Cl)cc(C(=O)Nc2cnc3c(c([C@@H]4CCN(C(=O)C5CCCC5)C(C)(C)C4)cn3C)c2C)c1` [Example 63, (R)-3-chloro-N-(3-(1-(cyclopentane-carbonyl)-2,2-dimethylpiperidin-4-yl)-1,4-dimethyl-1H-pyrrolo[2,3-b]pyridin-5-yl)-5-methoxybenzamide], the concentration for half-maximal inhibition (IC50) amounted to 12.9 nM. The IC50 values of the last two molecules are within 1.5-fold of each other.
